According to paper PMC7835237, “Dual mechanism β-amino acid polymers promoting cell adhesion” (Nature Communications, 2021):

Key:
[1] = tested on: MC3T3-E1 preosteoblast cells; test: Cell spreading area on modified surfaces (immunofluorescence analysis of cell morphology); assay type: cell-based, mouse
Method: The degree of cell spreading on a functionalized glass slide was measured by immunofluorescence analysis. After culture medium was removed, the slide was washed with PBS and then cells on the slide were fixed with 4% paraformaldehyde for 20 min. The slide was washed with PBS thrice and incubated for 5 min with 0.4% triton-X in PBS. Subsequently, the slide was washed with PBS thrice, followed by blocking with 3% bovine serum albumin (BSA) in PBS for 1 h at rt and then incubated with Alexa Fluor-555-conjugated anti-vinculin antibody (1:300 in PBS) overnight at 4 °C. The slide was washed with PBS thrice and incubated for 2 h with FITC-phalloidin (1:200 in PBS) and 4′-6-diamidino-2-phenylindole (DAPI) (5 μg/mL) for 10 min. The slide was washed with PBS thrice and its fluorescent images were collected on a confocal microscope (Nikon A1R, Japan).

[2] = tested on: MC3T3-E1 preosteoblast cells; test: Integrin αvβ3 to block RGD, cell adhesion; assay type: cell-based, mouse; design: unit not given here; details: for Cell density (figure 5g) / Cell spreading area (figure 5f): - αvβ3: serum-incubated surface without integrin αvβ3, 2 h after seeding; for Supplementary Figure8, cell adhesion on modified surface: - αvβ3
Method: An aliquot of 10 μL α-MEM medium containing 10% FBS was added to each well (formed by a 50-well coverslip on the top of a glass slide) and the slide was incubated in a humidified atmosphere at 37 °C for 2 h[24]. The slide was washed with PBS and incubated with integrin αvβ3 (10 µg/mL in PBS) at 37 °C for 1 h. Then cells at a concentration of 1.5 × 10^5 cells/mL in a serum-free medium were added to each individual well, having bottom surface modified with DM50CO50 or RGD peptide. After the slide was incubated at 37 °C for 2 h, cells in each well were stained with a live/dead staining solution and the fluorescent images were captured under a microscope (Nikon Eclipse Ti-S, Japan) at eight different locations in each well. The collected images were analyzed using the Image-pro plus software.

[3] = Water contact angle of modified surfaces; assay type: physicochemical; details: modified glass surface, Millipore water drops
Method: The water contact angles of bare glass, OEG8, RGD, and DM50CO50-modified surfaces were measured with a contact angle meter (JC2000D2) from Shanghai Zhongchen Digital Technology Apparatus Co., Ltd. Liquid drops (Millipore water) were delivered to the surface using a microsyringe.

With “RGDSPC [cell adhesion gold standard RGD peptide (RGDSPC), attached to surface]” the “Cell area of preosteoblast cells” value ([1]; cultured on modified surface for 3 h, replicate 1) was 3956, the “Cell area of preosteoblast cells” value ([1]; cultured on modified surface for 3 h, replicate 2) was 3895 and the “Cell area of preosteoblast cells” value ([1]; cultured on modified surface for 3 h, replicate 3) was 3549. The “Cell area of preosteoblast cells” value ([1]; cultured on modified surface for 24 h, replicate 1) was 4800, the “Cell area of preosteoblast cells” value ([1]; cultured on modified surface for 24 h, replicate 2) was 4752 and the “Cell area of preosteoblast cells” value ([1]; cultured on modified surface for 24 h, replicate 3) was 4625. For the same substance, the “Cell density (figure 5g)” value ([2]; value 1 of n = 9) was 80, the “Cell spreading area (figure 5f)” value ([2]; value 1 of n = 9) was 3308.7 and the “Cell density (figure 5g)” value ([2]; value 2 of n = 9) was 69. The “Cell spreading area (figure 5f)” value ([2]; value 2 of n = 9) was 3551.3, the “Cell density (figure 5g)” value ([2]; value 3 of n = 9) was 74 and the “Cell spreading area (figure 5f)” value ([2]; value 3 of n = 9) was 2958.5. The “Cell density (figure 5g)” value ([2]; value 4 of n = 9) was 75, the “Cell spreading area (figure 5f)” value ([2]; value 4 of n = 9) was 3300.7 and the “Cell density (figure 5g)” value ([2]; value 5 of n = 9) was 69. For the same substance, the “Cell spreading area (figure 5f)” value ([2]; value 5 of n = 9) was 3020, the “Cell density (figure 5g)” value ([2]; value 6 of n = 9) was 79 and the “Cell spreading area (figure 5f)” value ([2]; value 6 of n = 9) was 2866.3. The “Cell density (figure 5g)” value ([2]; value 7 of n = 9) was 74, the “Cell spreading area (figure 5f)” value ([2]; value 7 of n = 9) was 2910.3 and the “Cell density (figure 5g)” value ([2]; value 8 of n = 9) was 73. The “Cell spreading area (figure 5f)” value ([2]; value 8 of n = 9) was 3174.3, the “Cell density (figure 5g)” value ([2]; value 9 of n = 9) was 70 and the “Cell spreading area (figure 5f)” value ([2]; value 9 of n = 9) was 3494.7. The “Supplementary Figure8, cell adhesion on modified surface” value (from here on “Supplementary Figure8, cell adhesion”) ([2]; replicate 1) was 0.61, the “Supplementary Figure8, cell adhesion” value ([2]; replicate 2) was 0.2888 and the “Supplementary Figure8, cell adhesion” value ([2]; replicate 3) was 0.3748. For the same substance, the Water contact angle [3] was 41 °.
